In US20030191323A1, “Hypoglycemic agent” (Ajinomoto Co., Inc., priority 2000, published 2003):

Columns and labels:
[1] = tested on: Rat skeletal muscle cell strain L6 cells; assay: Effect of accelerating the glucose uptake in cultured skeletal muscle cells ([3H]-2-deoxyglucose uptake); type: cell-based; settings: 10 min, 10 μM compound, cultured overnight, 2DG uptake in L6 myotubes, 37° C. 10 minutes, compared with the control group
Protocol: Effect of accelerating the glucose uptake in cultured skeletal muscle cells: Method: Rat skeletal muscle cell strain “L6 cells” in a confluent state was cultured in DME medium containing 2% of fetal calf serum for one week to differentiate into myotubes. The medium was replaced with the DME medium containing a compound synthesized in each of the above Reference Examples. After culturing overnight followed by the thorough washing with HEPES buffer solution, an HEPES buffer solution containing 37 kBq/ml of 10 μM [3H]-2-deoxyglucose (2DG) was added thereto. After the culture at 37° C. for 10 minutes, the radioactivity of 2DG transmigrated into the cells was determined. The effect (%) of each compound on 2DG uptake was determined as compared with that in the control group.

[2] = tested on: non-insulin-dependent diabetes model mice (KK mice); assay: Hypoglycemic effect on non-insulin-dependent diabetes model mice (KK mice); type: in vivo; settings: Mus musculus, 168 h; 30 mg/kg twice a day for one week, KK mice 8 weeks old; fasted overnight; calculated on the basis of blood glucose level (100) in the control group
Protocol: Hypoglycemic Effect on Non-Insulin-Dependent Diabetes Model Mice (KK Mice)
Method: A compound (30 mg/kg) was administered to non-insulin-dependent diabetes model mice (8 weeks old) twice a day for one week. After final administration, the mice were fasted overnight and then the blood glucose concentration of each mouse was determined. The hypoglycemic effect of the compound was calculated on the basis of the blood glucose level (100) in the control group.

| melting point | SMILES | activity at 10 µM [1] | inhibition in vivo at 30 mg/kg [2] |
| --- | --- | --- | --- |
| 142 to 143 °C | CCCCCC(=O)NS(=O)(=O)c1ccccc1NC(=O)c1cccc(OCc2ccc(C(F)(F)F)cc2)c1 [compound 41, N-[2-[3-(4-Trifluoromethylbenzyloxy)benzamido]benzenesulfonyl]hexanamide] | 230% |  |
| 194 to 196 °C | CCCCCC(=O)NS(=O)(=O)c1ccccc1NC(=O)c1ccc(C#Cc2cccc(C(F)(F)F)c2)cc1 [compound 60, 4-(3-Trifluoromethyl)phenylethynyl-N-(2-hexanoylaminosulfonylphenyl)benzamide] | 246% | 51.1% |
| 236 to 237 °C | CC(C)(C)C(=O)NS(=O)(=O)c1ccccc1NC(=O)c1ccc(C#Cc2ccccc2)cc1 [compound 51, N-[2-(4-Phenylethynylbenzamido)benzenesulfonyl]pivalamide] | 225% |  |
| 197 to 199 °C | CCCCCC(=O)NS(=O)(=O)c1ccccc1NC(=O)c1ccc(C#Cc2ccc(OC(F)(F)F)cc2)cc1 [compound 66, 4-(4-Trifluoromethoxyl)phenylethynyl-N-(2-hexanoylaminosulfonylphenyl)benzamide] | 94% | 28.2% |
| 138 to 141 °C | CCCCCC(=O)NS(=O)(=O)c1ccccc1NC(=O)c1cccc(OCc2ccc([N+](=O)[O-])cc2)c1 [compound 26, N-[2-[3-(4-Nitrobenzyloxy)benzamido]benzenesulfonyl]hexanamide] | 134% |  |
| 183 to 186 °C | CCCCCC(=O)NS(=O)(=O)c1ccccc1NC(=O)c1ccc(C#Cc2cccc(F)c2)cc1 [compound 72, 4-(3-Fluoro)phenylethynyl-N-(2-hexanoylaminosulfonylphenyl)benzamide] | 279% | 9.2% |
|  | CC/C=C/CC(=O)NS(=O)(=O)c1ccccc1NC(=O)c1ccc(C#Cc2ccccc2)cc1 [compound 54, Trans-N-[2-(4-phenylethynylbenzamido)benzenesulfonyl]-3-hexenamide] | 118% |  |
| 204 to 205 °C | CC(=O)CCCC(=O)NS(=O)(=O)c1ccccc1NC(=O)c1ccc(C#Cc2ccc(OC(F)(F)F)cc2)cc1 [compound 67, 4-(4-Trifluoromethoxyl)phenylethynyl-N-(2-(5-ketohexanoylamino)sulfonylphenyl)benzamide] |  | 40.2% |
| 175 to 176 °C | CCCCCC(=O)NS(=O)(=O)c1ccccc1NC(=O)c1ccc(C#Cc2ccccc2)cc1 [compound 49, N-[2-(4-Phenylethynylbenzamido)benzenesulfonyl]hexanamide] | 212% | 10.3% |
| 175 to 177 °C | CCCOCC(=O)NS(=O)(=O)c1ccccc1NC(=O)c1ccc(C#Cc2cccc(C(F)(F)F)c2)cc1 [compound 62, 4-(3-Trifluoromethyl)phenylethynyl-N-(2-(2-propyloxyacetylamino)sulfonylphenyl)benzamide] |  | 60.9% |
| 169 to 171 °C | CC(=O)CCCC(=O)NS(=O)(=O)c1ccccc1NC(=O)c1ccc(C#Cc2cccc(C(F)(F)F)c2)cc1 [compound 61, 4-(3-Trifluoromethyl)phenylethynyl-N-(2-(5-ketohexanoylamino)sulfonylphenyl)benzamide] |  | 65.7% |
| 210 to 212 °C | CCCCCC(=O)NS(=O)(=O)c1ccccc1NC(=O)c1ccc(C#Cc2ccc(C(F)(F)F)cc2)cc1 [compound 64, 4-(4-Trifluoromethyl)phenylethynyl-N-(2-hexanoylaminosulfonylphenyl)benzamide] | 204% | 34.5% |
| 112 to 113 °C | CCCCCC(=O)NS(=O)(=O)c1ccccc1NC(=O)c1cccc(OCC2CCCCC2)c1 [compound 34, N-[2-(3-cyclohexylmethoxybenzamido)benzenesulfonyl]hexanamide] | 145% |  |
| 179 to 181 °C | CC(=O)CCCC(=O)NS(=O)(=O)c1ccccc1NC(=O)c1ccc(C#Cc2ccc(F)cc2)cc1 [compound 70, 4-(4-Fluoro)phenylethynyl-N-(2-(5-ketohexanoylamino)sulfonylphenyl)benzamide] |  | 30.5% |
| 186 to 188 °C | CCCSCC(=O)NS(=O)(=O)c1ccccc1NC(=O)c1ccc(C#Cc2ccccc2)cc1 [compound 58, 4-Phenylethynyl-N-(2-(2-propylthioacetylamino)sulfonylphenyl]benzamide] |  | 22.7% |
| 154 to 157 °C | CCCCCC(=O)NS(=O)(=O)c1ccccc1NC(=O)c1cccc(OCc2ccc(OC)cc2)c1 [compound 30, N-[2-[3-(4-Methoxybenzyloxy)benzamido]benzenesulfonyl]hexanamide] | 131% |  |
| 183 to 186 °C | CCCCCC(=O)NS(=O)(=O)c1ccccc1NC(=O)c1ccc(C#Cc2ccc(F)cc2)cc1 [compound 69, 4-(4-Fluoro)phenylethynyl-N-(2-hexanoylaminosulfonylphenyl)benzamide] | 240% | 27.7% |
| 148 to 149 °C | CCCCCC(=O)NS(=O)(=O)c1ccccc1NC(=O)c1cccc(OCc2ccc(Cl)cc2)c1 [compound 22, N-[2-[3-(4-Chlorobenzyloxy)benzamido]benzenesulfonyl]hexanamide] |  |  |
